Assay results: patent US11981617B2, “Ketamine pamoate and use thereof” (Alar Pharmaceuticals Inc., priority 2019, dated 2024)
Structures can show the parent of a compound that is named as a salt.

Experiments:
[1] = in vivo; cited from earlier work
[2] = system: DEX-treated mice; assay: Sedation behavior by rodent sedation rating scale; assay type: in vivo, ICR mice; details: s.c., 120 mg/kg of ketamine free-base; for sedation behavior (rodent sedation rating scale): immediately post injection to 14 days
Description: (§1) ICR mice were intraperitoneally injected with saline or DEX at postnatal day 1 to 3 (P1-P3) with dose decrement of 0.5 mg/kg, 0.3 mg/kg, and 0.1 mg/kg, respectively. The drugs for each group or saline were administered subcutaneously at postnatal day 35, P35 (i.e., dosing day 0, D0), and forced swimming test (FST) was conducted on dosing day 1 (D1, P36) and dosing day 10 (P45) after drug administration. Evaluation of sedation behavior was also conducted by sedation rating scale from the time immediately post injection to dosing day 14 (P49) after drug administration.
(§2) Neonatal ICR mice (BioLASCO, Taipei, Taiwan) were intraperitoneally injected with saline or DEX on postnatal day 1, 2, and 3 (P1, P2, and P3) at doses of 0.5 mg/kg, 0.3 mg/kg, and 0.1 mg/kg, respectively. […] The dugs were then subcutaneously injected into mice of the corresponding groups at postnatal day 35, while the mice of the Control and Saline groups were injected with equal volumes of 0.9% saline. Drugs for administration were prepared in phosphate-buffered saline (PBS), and then well mixed by high speed vortex before injection.
Furthermore, sedation behavior was also evaluated by rodent sedation rating scale (Table 6) immediately post drug administration to 14 days.

[3] = system: DEX-treated mice; assay: Forced swimming test (FST) in DEX-induced depression-like animal model; assay type: in vivo, ICR mice; details: 120 mg/kg of ketamine free-base; for onset of antidepressant effect on FST: single injection; for immobility time in FST: single s.c. injection
Description: as §1, §2
Antidepressant effects were evaluated by forced swimming test (FST), which performed on dosing day 1 (P36) and dosing day 10 (P45) after drug administration. The mice of all groups were trained for swimming before drug administration. During the FST, mice were individually placed into 5 L glass cylinders (height 27 cm, diameter 18 cm) filled with 4 L of water (23±1° C.). The total duration of immobility time during 5 minutes of FST was observed. Results were presented as mean±SEM. Student's t-test was utilized to analyze Saline group (DEX-treated mouse group injected with saline) versus the other groups at each time point. * p<0.05, ** p<0.01, and *** p<0.001 indicate significant differences compared to the Saline group.

[4] = system: female Sprague Dawley (SD) rats; assay: 3-month repeat-dose toxicology study; details: for neuronal morphology in prefrontal cortex / bladder mucosal folds (histopathology) / bladder apical epithelial surfaces (histopathology): total 1440 mg/kg of ketamine free-base; for neuronal morphology in prefrontal cortex: brain slices; for bladder mucosal folds (histopathology): magnification x40; for bladder apical epithelial surfaces (histopathology): magnification x400; for injection site observation (skin surface) / injection site histopathology: inflammatory cells at higher magnification / injection site histopathology: tissue morphology: KET 60 mg/kg twice weekly, KEP 480 mg/kg monthly; for injection site histopathology: inflammatory cells at higher magnification / injection site histopathology: tissue morphology: HE staining
[5] = system: beagle dogs; assay: Injection site evaluation by Draize skin erythema/eschar rating scale; assay type: in vivo; details: male beagle dogs, individual animals, single 44 mg/kg of ketamine free-base, Day 1, 2, 4, 8, 15
Description: A specific in vivo study to evaluate the injection site reaction of KEP was conducted in beagle dogs ([…] LABES, CO., LTD. Ina, Japan).

CNC1(c2ccccc2Cl)CCCCC1=O (centres unmarked) [ketamine]
LD50 dose [1]: 229 mg/kg

CN[C@]1(c2ccccc2Cl)CCCCC1=O [S-KEP, S-ketamine pamoate]
sedation behavior (rodent sedation rating scale) [2]: normal behavior | onset of antidepressant effect on FST [3]: rapid-onset antidepressant effects | immobility time in FST ([3]; day 1 after administration): reduced the immobility times | immobility time in FST ([3]; day 10 after administration): reduced the immobility times

R, S-ketamine pamoate [KEP]
sedation behavior (rodent sedation rating scale) [2]: normal behavior | tolerability of single subcutaneous injection ([4]; 480 mg/kg of ketamine free-base): well tolerable | neuronal morphology in prefrontal cortex ([4]; 12 weeks): normal | bladder mucosal folds (histopathology) ([4]; 12 weeks): thin mucosal folds | bladder apical epithelial surfaces (histopathology) ([4]; 12 weeks): rough | density of inflammatory cells at injection site under microscopic fields ([4]; s.c., 12 weeks, KEP 480 mg/kg monthly versus KET 60 mg/kg twice weekly): much less than KET group | injection site observation (skin surface) ([4]; s.c., 12 weeks): normal skin surfaces | injection site histopathology: inflammatory cells at higher magnification ([4]; s.c., 12 weeks): infiltration of inflammatory cells in connective tissues | injection site histopathology: tissue morphology ([4]; s.c., 12 weeks): normal morphology of skin slices | onset of antidepressant effect on FST [3]: rapid-onset antidepressant effects | immobility time in FST ([3]; day 1 after administration): reduced the immobility times | immobility time in FST ([3]; day 10 after administration): reduced the immobility times | Draize skin erythema/eschar observation at injection site [5]: No erythema

CN[C@@]1(c2ccccc2Cl)CCCCC1=O [R-KEP, R-ketamine pamoate]
sedation behavior (rodent sedation rating scale) [2]: normal behavior | onset of antidepressant effect on FST [3]: rapid-onset antidepressant effects | immobility time in FST ([3]; day 1 after administration): reduced the immobility times | immobility time in FST ([3]; day 10 after administration): reduced the immobility times

CNC1(c2ccccc2Cl)CCCCC1=O (centres unmarked) [KET, ketamine HCl, reference compound]
sedation behavior (rodent sedation rating scale) [2]: heavy sedation-related behavior | time to full recovery from sedation ([2]; post administration): 2 h | neuronal morphology in prefrontal cortex ([4]; 12 weeks): granule cells were lack, and the morphology of pyramidal cells changed to be small or shrinking like in process of degradation | bladder mucosal folds (histopathology) ([4]; 12 weeks): protrusive and enlarged mucosal folds | bladder apical epithelial surfaces (histopathology) ([4]; 12 weeks): smooth | pathological bladder and brain changes ([4]; high dose subchronic treatment for 12 weeks): bladder fibrosis and neuronal morphology alteration in brain | injection site observation (skin surface) ([4]; s.c., 12 weeks): injection site erythema, which gradually became open wound | injection site histopathology: inflammatory cells at higher magnification ([4]; s.c., 12 weeks): infiltration of inflammatory cells in connective tissues | injection site histopathology: tissue morphology ([4]; s.c., 12 weeks): morphology damage on epidermis, dermis, subcutis, and muscle tissues | maximum tolerated dose (MTD) ([4]; subcutaneous injection): 60 mg/kg of ketamine free-base | onset of antidepressant effect on FST [3]: rapid-onset antidepressant effects | immobility time in FST ([3]; day 1 after administration): reduced the immobility times | immobility time in FST ([3]; day 10 after administration): reduced the immobility times
